From article PMC11860023, “Synthesis and Characterization of Memantine-Loaded Niosomes for Enhanced Alzheimer’s Disease Targeting” (Pharmaceutics, 2025)
Converted amounts (≈) assume the structure as drawn. Marks after values point to notes of the source that are not given here.

Columns and labels:
[1] = system: differentiated SH-SY5Y cells exposed to amyloid beta 1−42 peptide; experiment: Neuroprotection in the in vitro AD model (differentiated SH-SY5Y exposed to amyloid beta 1-42), MTT; type: cell-based, human; settings: for concentration range of optimal neuroprotective activity: AD model, differentiated neuronal cultures; for increase of cell viability versus amyloid beta only control: derivative loaded into niosomal drug delivery system, 47 µg/mL, 24 h; for cell viability versus amyloid beta only control (neuroprotective effect): free compound 47 µg/mL, 10 µM amyloid beta 1−42
Protocol: (§1) The SH-SY5Y neuroblastoma cell line, frequently used as an in vitro model of Alzheimer’s disease, has been cultured to transform into mature neuron-like structures through differentiation with retinoic acid (RA). For this purpose, the SH-SY5Y neuroblastoma cell line was grown in a DMEM:F12 nutrient medium environment with 10% fetal bovine serum (FBS) growth factor, 1% Penicillin/streptomycin, and 5% CO2 at 37 °C. The nutrient medium was refreshed every three days, with half the volume changed. Cells were subcultured after treatment with trypsin/EDTA for 5 min. To differentiate SH-SY5Y cells, the medium containing 10 µM RA (DMEM:F12 + 15% FBS) was added. Five days after the addition of RA, the cells were washed three times with PBS and incubated in DMEM:F12. The differentiation of the cells was determined by cell cycle analysis using a flow cytometry system. […] Converted cell cultures were used as a negative control, and cell cultures with only amyloid beta were used as a positive control without adding the synthesized molecules. The viability rates in the in vitro AD model that we intended to create were analyzed with MTT cytotoxicity tests.
Differentiated SH-SY5Y cells were seeded into 96-well plates, with each well containing 100 μL of culture medium with 2 × 10^4 cells. […] At the end of the incubation period, 10 μL of MTT mixture was added to each well for MTT analysis. The mixture was gently stirred using a circular mixer for 1 min and then incubated in a CO2 incubator at 37 °C for 3–4 h. […] The culture medium was carefully aspirated from each compartment without disturbing the cell layer. Alternatively, before aspiration, the plate was centrifuged at 400× g for 10 min to settle non-adherent cells. Then, 100 μL of crystal solvent solution (DMSO) was added to each compartment, and the absorbance of each sample was measured at 570 nm using a microplate reader.
This peptide is instrumental in AD pathology and serves as a pertinent stressor for assessing the neuroprotective efficacy of potential therapeutic agents.
In the conducted in vitro studies, the neuroprotective effects of memantine derivatives encapsulated within a nanosomal drug delivery system were evaluated using the SH-SY5Y neuroblastoma cell line as a model for AD. The differentiated neuronal cultures were treated with memantine derivatives which were loaded into the niosomal drug delivery systems at a uniform concentration of 47 µg/mL across three independent experimental repeats.

[2] = In vitro drug release from niosomes (dialysis membrane, PBS-SDS, 37 °C); type: physicochemical; settings: for Higuchi coefficient (kH): release from niosomal carriers, Higuchi model
Protocol: To investigate the drug’s release profile from the niosomes, an in vitro release study was performed. For the release study, we used loading rates calculated by a drug loading study. A 2 mL aliquot of the optimized niosomal formulation was enclosed within a dialysis membrane (with a 12 kDa molecular weight cut-off) and incubated for 72 h at 37 °C. This incubation occurred in a stirring environment within 50 mL of a release solution composed of phosphate-buffered saline with 0.5% sodium dodecyl sulfate (PBS-SDS) by w/v. Samples of 1 mL were systematically withdrawn at specific intervals (1, 2, 4, 8, and 24 h) from the release medium, with each withdrawal immediately compensated for by an equivalent volume of fresh release medium. The optical density of these samples was measured at 236 nm using a spectrophotometer. From these measurements, the quantity of memantine released was calculated, and the release percentages were reported as a proportion of the total drug release.
Drug release capacities with MP1–4 were determined using the niosomal release systems generated. […] This feature offers an important advantage in terms of controlled drug release. The drug release study was carried out by measuring the absorbance using a spectrophotometer on samples taken at specific time intervals (1, 2, 4, 8, and 24 h). These measurements were carried out at the max peak of the drugs, and the data obtained were used to determine the amount of memantine derivative drug released. The results present the percentages of the released content as a percentage of total release. […] It was also concluded that a slow and proportional release occurred over the indicated time period, indicating the potential for controlled drug release (Figure 6).

[3] = Drug loading (encapsulation efficiency) of niosomes, UV at 236 nm after centrifugal filtration; type: physicochemical; settings: Span60:cholesterol 2:1, drug 1 mg/mL
Protocol: The efficiency of MP1–4 encapsulation within the niosomes was evaluated by quantifying the unencapsulated MP1–4. This was achieved by centrifuging the niosomal mixtures at 4 °C for 20 min at a speed of 4000 rpm, utilizing an Amicon Ultra centrifuge filter unit (Millipore Merck, Darmstadt, DE). The optical density of the supernatant containing free MP1–4 was measured at a wavelength of 236 nm with a UV–Vis spectrophotometer (Eppendorf® 580R centrifuge, Hamburg, DE). By determining the concentration of the free drug in the supernatant, we were able to calculate the unknown amount of encapsulated drug. The encapsulation efficiency percentage was then computed based on the initial molecule concentration (Ci) used in the niosome preparation versus the concentration found post-centrifugation (Cf), as in the following equation:% Loading capacity = [(Ci − Cf)/Ci] × 100 (1)
The loading capacities of the synthesized memantine derivative compounds in the niosomal drug delivery system were examined in detail. In this study, loading efficiency was determined by centrifuging niosomal formulations using an Amicon Ultra centrifuge filter device (Millipore Merck, Burlington, MA, USA) at 4000 rpm for 20 min at 4 °C. The amount of free drug remaining was recorded using a UV–Vis spectrophotometer (Eppendorf® 580R centrifuge, Hamburg, DE). […] However, the loading capacity of the memantine derivative MP2 was determined to be 53%, which is below the desired capacity.

[4] = system: bEnd.3 cells / SH-SY5Y disease model; experiment: In vitro BBB permeability test, transwell bEnd.3 monolayer over SH-SY5Y disease model, viability readout; type: cell-based; settings: carrier 0.1 mg/mL loaded with 47 µg/mL vs non-loaded 47 µg/mL, 24 h
Protocol: In vitro BBB models were created using a transwell culture system for BBB permeability analysis. Initially, bEnd.3 cells were seeded inside the membrane of the plate at a starting density of 1 × 10^5 cells/well and cultured for about a week in DMEM growth medium supplemented with 10% fetal bovine serum. Subsequently, the upper compartments containing bEnd.3 monolayers were transferred to plates containing SH-SY5Y cells coated at the bottom of the lower compartments. Then, carrier particles were added to the apical upper chambers of the BBB models at a final concentration of 0.1 mg/mL. Approximately 24 h after incubation, viability analyses were conducted on the SH-SY5Y disease model formed in the lower layer to determine BBB permeability capacities. A schematic diagram of the method is shown below (Figure 2). Prior to starting the experimental procedures, the bEnd.3 cells were cultured until 90–100% confluency was achieved, as this confluency level is necessary for tight junction formation and optimal barrier properties. The integrity of the cell monolayer was then evaluated under an inverted microscope to confirm confluence and uniform cell distribution, ensuring the reliability of the in vitro BBB model.
In vitro BBB permeability analyses were conducted by establishing in vitro transwell BBB models, within which the effects of drug-loaded MP1–4 were studied. […]

[5] = system: differentiated SH-SY5Y cells; experiment: MTT cell viability test in differentiated SH-SY5Y cell cultures; type: cell-based, human; settings: for cell viability at the highest concentration: 500 µg/mL; for IC50: Homo sapiens, read-out: IC50 (concentration required to achieve 50% cell viability), MTT
Protocol: Differentiated SH-SY5Y cells were seeded into 96-well plates, with each well containing 100 μL of culture medium with 2 × 10^4 cells. […] At the end of the incubation period, 10 μL of MTT mixture was added to each well for MTT analysis. The mixture was gently stirred using a circular mixer for 1 min and then incubated in a CO2 incubator at 37 °C for 3–4 h. […] The culture medium was carefully aspirated from each compartment without disturbing the cell layer. Alternatively, before aspiration, the plate was centrifuged at 400× g for 10 min to settle non-adherent cells. Then, 100 μL of crystal solvent solution (DMSO) was added to each compartment, and the absorbance of each sample was measured at 570 nm using a microplate reader [18].

[6] = system: human fibroblast (HDFa) cell cultures; experiment: Nuclear abnormality / micronucleus analysis by Hoechst 33258 staining in HDFa cells; type: cell-based; settings: 24 h, 125 μg/mL
Protocol: (§2) The human fibroblast cell line (ATCC® PCS-201-012™ Manassas, VA, USA) was propagated in DMEM culture medium enriched with a 1% mixture of penicillin/streptomycin antibiotics and 10% fetal bovine serum (FBS) and maintained in an atmosphere containing 5% CO2 at a temperature of 37 °C until they reached full confluence. To identify nuclei alterations, Hoechst 33258 fluorescent dye was employed. […] Following the treatment period, the cells were stabilized using 4% paraformaldehyde at a cool temperature of 4 °C for 30 min. The cells were then rinsed with PBS and exposed to 1 µM of the Hoechst 33258 dye for a brief duration of 5 min [15]. After the staining process, the cells were examined and imaged using a Leica® DM IL LED (Leica Microsystems, Wetzlar, DE) fluorescent microscope.
Figure 4 Analysis of the genotoxic properties of synthesized memantine derivatives (MP1–4) in cultured human fibroblast cells (HDFa) using Hoechst 33258 fluorescent staining of cell nuclei. (A) MP1, (B) MP2, (C), MP3 and (D) MP4.

[7] = system: human fibroblast cells (HDFa); experiment: MTT cell viability assay of MP1–4 in cultured human fibroblast cells (HDFa); type: cell-based; settings: at each concentration applied
Protocol: as §2
The human fibroblast cell line HDFa was cultured and tested for toxicity with 4 different memantine derivatives in 48-well plates. The experiments, conducted in triplicate, included both treated and untreated (negative control) cell cultures. Post-treatment, the cells were incubated with an MTT mixture to assess cell viability, followed by the addition of a crystal solvent solution (DMSO) to dissolve formazan crystals formed in viable cells. The absorbance of each sample was measured to evaluate the cytotoxic effects of the memantine derivatives on the fibroblast cells. […]

SH-SY5Y cells = experiment: Cell cycle distribution of SH-SY5Y cells by flow cytometry after retinoic acid differentiation; type: cell-based, human; settings: all-trans retinoic acid 10 µM, 11 days
Protocol: as §1
To confirm successful differentiation, flow cytometry was utilized to analyze the cell cycle distribution within the cultures.

SMILES | concentration range of optimal neuroprotective activity [1] | increase of cell viability versus amyloid beta only control [1] | cell viability versus amyloid beta only control (neuroprotective effect) [1] | Higuchi coefficient (kH) [2] | drug release behaviour from niosomal release systems ([2]; sampling at 1, 2, 4, 8 and 24 h) | Drug Loading (%) / encapsulation efficiency [3] | effect on cell viability / neuroprotection of niosome-loaded versus non-loaded derivative [4] | cell viability at the highest concentration [5] | IC50 [5] | Mean NA/1000 Cells ± SD [6] | Nuclear Abnormalities (NA) Total Lobbed [6] | Nuclear Abnormalities (NA) Total MN [6] | Nuclear Abnormalities (NA) Total Notched [6] | decrease of cell viability [7] | Cell Population (%) G1 Phase (SH-SY5Y cells) | Cell Population (%) G2 Phase (SH-SY5Y cells) | Cell Population (%) S Phase (SH-SY5Y cells)
CCCC(CCC)C(=O)NC12CC3CC(C)(CC(C)(C3)C1)C2 [MP1] | 15.6 to 62.5 µg/mL | approximately 40% | significantly enhanced cell viability | 10.36 | most optimal drug release | ≥ 85% | higher effect on cell viability and a significant increase in neuroprotective properties | relatively higher cell viability | 5620 µg/mL (≈ 18400 µM) | 0.013 ± 0.001 ^a | 3 | 5 | 5 | – | – | – | –
CC12CC3CC(C)(C1)CC(NC(=O)CCCc1ccccc1)(C3)C2 [MP2] | 31.25 to 125 µg/mL | approximately 40% | significantly enhanced cell viability | 7.55 | – | 53% | – | relatively higher cell viability | 457 µg/mL (≈ 1400 µM) | 0.012 ± 0.002 ^a | 5 | 4 | 3 | – | – | – | –
CC12CC3CC(C)(C1)CC(NC(=O)/C=C/c1ccc(O)c(O)c1)(C3)C2 [MP4] | – | approximately 40% | significantly enhanced cell viability | 10.82 | – | ≥ 85% | higher effect on cell viability and a significant increase in neuroprotective properties | significantly reduced | 659 µg/mL (≈ 1930 µM) | 0.013 ± 0.003 ^a | 4 | 5 | 4 | ~40% | – | – | –
CC1=C(/C=C/C(C)=C/C=C/C(C)=C/C(=O)O)C(C)(C)CCC1 [RA Treated, all-trans retinoic acid] | – | – | – | – | – | – | – | – | – | – | – | – | – | – | 72.45 ± 3.78 % | 5.34 ± 0.17 % | 18.65 ± 3.23 %
